Results on 8 compounds are retold here after patent publication US7884120B2, “2,4,5-trisubstituted imidazoles and their use as anti-microbial agents” (Lorus Therapeutics Inc., priority 2002, dated 2011).

≈ marks a conversion by molar mass, not a printed value. Read-outs that look alike come from different tables or passages of the source.

The format of data set [1] is in vivo. The note with it: mice; injected 200 mg/kg per day. The protocol: In vivo acute toxicity tests were conducted using compounds 1, 2, 3 and 4. Mice were injected with each of the above compounds at a concentration of 200 mg/kg per day.
Data set [2] has as its system Enterococcus faecium (ATCC-51559). The experiment in a line: MIC by microdilution against Enterococcus faecium. In kind it is cell-based. The note with it: unit not given in Table 4 (Table 3, same method: μg/ml). The protocol:
(§1) A standard microdilution method (NCCLS, 2000; Document M7-A5) was used to determine the minimum inhibitory concentrations (MICs) against S. aureus, methicillin-resistant strains (MRSA); 1A-218, 1A-318, 1B-374, 1B-315, 1B-185, 1B387 (Simor et al. 1999 Can Commun Dis Rep; 25:105-108) and methicillin-sensitive strains (MSSA); ATCC-6538 and ATCC-29213. The MICs of some compounds were also determined against other Gram-positive bacteria: Enterococcus faecium (ATCC 51559), Enterococcus faecalis (ATCC-51299, ATCC-29212) and Staphylococcus epidermidis (ATCC-35983).
(§2) Mueller-Hinton broth (MHB) is recommended as the medium of choice for susceptibility testing of commonly isolated, rapidly growing aerobic organisms such as the Gram-positive bacteria included in this study. A “cation-adjusted Mueller-Hinton broth” (Ca-MHB) was prepared by first preparing standard MHB from a dehydrated base as recommended by the manufacturer.
(§3) Single colonies from fresh agar plates of the different bacterial cultures were sub-cultured overnight in 3 ml of Tryptic soy broth (TSB) at 37° C. with shaking at 250 RPM. After 18-20 hours of incubation, the absorbance at λ=600 nm (OD600) were determined for each culture and adjusted to a final OD600=0.1 (4.2×10^7 cfu/ml). Bacterial suspensions were then diluted 1:200 in sterile Ca-MHB for the in vitro susceptibility test, with each well of the microtitre plate containing approximately 2×10^5 cfu/ml.
(§4) Stock solutions of the different test compounds were prepared at concentrations of 1,280 μg/ml, 640 μg/ml, or 320 μg/ml in 50% DMSO (dimethyl sulfoxide). Serial two-fold dilutions were then prepared in 50% DMSO (the working concentrations were 1:10 of the stock concentrations in 100 μl culture suspensions). The filled microtitre plates were sealed in plastic bags and incubated at 35° C. for 24 hr in an ambient air incubator with shaking at 250 RPM. MIC values were determined as the lowest concentration where complete inhibition of the visible bacterial growth was observed by the unaided eye and confirmed by the measurement of the optical density (OD600).

In data set [3] the test system is Staphylococcus epidermidis (ATCC-35983). The data set is described as follows: MIC by microdilution against Staphylococcus epidermidis. In kind it is cell-based. The note with it: unit not given in Table 4 (Table 3, same method: μg/ml). The procedure: as §1, §2, §3, §4
The subject of data set [4] is Enterococcus faecalis (ATCC-51299). The data set is described as follows: MIC by microdilution against Enterococcus faecalis ATCC-51299. In kind it is cell-based. The note with it: unit not given in Table 4 (Table 3, same method: μg/ml). The protocol: as §1, §2, §3, §4
Another data set concerns MRSA-1B387. The data set is described as follows: In vivo inhibition of MRSA, acute infection in immunosuppressed CB17-SCID mice. Details: species or system Staphylococcus aureus. The conditions noted are these: 5×10^6 MRSA-1B387 in 5% mucin, 50 mg/kg I.P. immediately and 3 hours after inoculation. The protocol: Triaryl-imidazole compounds were tested in vivo for antibacterial activity against MRSA in a model of acute infection using immunosuppressed mice. Suspensions of 400 μL containing 5×10^6 MRSA-1B387 bacteria in 5% mucin were injected into groups of 5-10 female, 8-14 weeks CB17-SCID mice. Under these conditions bacterial infection produced 80-100% lethality in less than 48 hours. Each group of inoculated mice was treated with 50 mg/kg of the respective compound intraperitoneally (I.P.) immediately and 3 hours after bacterial inoculation.

Data set [5] concerns multi-drug resistant Staphylococcus aureus (CMRSA-1B). The experiment in a line: Bactericidal effect against MRSA (CFU plating on TSA). The conditions noted are these: overnight with compound, plated on TSA, CFU count (FIG. 1). In kind it is cell-based. The protocol:
Serial dilutions of liquid cultures were incubated with the compounds at 37° C. overnight and then plated on Tryptic Soy Agar (TSA) plates. After incubation for 17 hours at 37° C., the number of live bacteria was calculated from the number of colonies grown per milliliter of culture and expressed as colony-forming units (CFU).

For data set [6], the system named is S. aureus, MRSA 1A-218, 1A-318, 1B-374, 1B-315, 1B-185, 1B387 and MSSA ATCC-6538, ATCC-29213. The experiment in a line: MIC by standard microdilution method against S. aureus (MRSA and MSSA strains). In kind it is cell-based. The conditions noted are these: Staphylococcus aureus. The procedure: as §1, §2, §3, §4
The subject of data set [7] is Enterococcus faecalis (ATCC-29212). The data set is described as follows: MIC by microdilution against Enterococcus faecalis ATCC-29212. In kind it is cell-based. The note with it: unit not given in Table 4 (Table 3, same method: μg/ml). The protocol:
as §1, §2, §3, §4

Data set [8] relates to Methicillin-Resistant Staphylococcus aureus (MRSA), CMRSA-1B. The experiment in a line: MIC by sequential macrodilution (tube) broth method against MRSA. In kind it is cell-based. Details: key: (+): Positive visual bacterial growth; (−): Negative visual bacterial growth. The conditions noted are these: 37° C. overnight. The protocol: (Nat. Committee for Clinical Laboratory Standards. Document M7-A5 2000, 20; 1-25). Bacterial suspensions containing 5×10^5 colony-forming units (CFU) were incubated with serial two-fold dilutions of each drug at 37° C. overnight, and growth was monitored visually. The range of MIC values among the triaryl-imidazole derivatives was 12.5-50 μg/ml.

Data set [9] deals with Candida albicans (ATCC 24433). The experiment in a line: In vitro anti-fungal activity, microdilution against Candida albicans. In kind it is cell-based. The note with it: ATCC24433, C. albicans ATCC 24433, compound 25 μg/ml. The procedure: A microdilution method was used to determine the anti-fungal activity of different test compounds against Candida albicans (ATCC 24433) at 25 μg/ml. RPMI-1640 broth is recommended as the medium of choice for susceptibility testing of C. albicans (NCCLS, 2002; Document M27-A2) and was used in this study. The broth was buffered to pH 7.0 and then sterilized using a 250 ml vacuum driven disposable 0.45 um filtration system.
C. albicans was sub-cultured from a −80° C. stock onto Sabouraud dextrose agar and incubated for 24-48 hrs at 37° C. The fungi inoculum was prepared by picking five colonies of ˜1 mm in diameter from 24-48 hr old cultures. The colonies were then suspended in 5 ml of sterile normal saline (8.5 g/L NaCl; 0.85% saline) diluted 1:50 and further diluted 1:20 with medium to obtain two-fold inoculum (1-5×10^3 cfu/ml). […] The microtitre plates were then sealed in plastic bags and incubated at 35° C. for 24-48 hrs in an ambient air incubator with shaking at 250 RPM.
Inhibition of visible growth of C. albicans in the microtitre plate wells was assessed by the unaided eye and confirmed by OD600 reading. […] The MIC values of compounds with significant activity are also included.

The subject of data set [10] is MRSA 1B-387. The data set is described as follows: In vivo anti-bacterial activity, ICR mice inoculated I.P. with MRSA, oral treatment. The note with it: Staphylococcus aureus. The procedure:
For in vivo studies, groups of 5-10 female ICR mice (6-7 weeks) were inoculated intraperitonially with 3-8×10^7 CFU MRSA 1B-387 per mouse in 400 μl of 5% mucin. The test compounds at concentrations of 50 or 100 mg/kg were administered orally immediately after the bacterial inoculation and again 3 hours later. The selected dosages were administered twice daily throughout the experiment. The efficacy of the treatment was evaluated by comparison of mortality between the experimental and control groups (Table 5).

The subject of data set [11] is MRSA 1B-387. The data set is described as follows: In vivo anti-bacterial activity, ICR mice inoculated I.P. with MRSA, oral treatment. The note with it: Staphylococcus aureus. This is another data set of the same source.
Where [12] appears, read: against all 8 strains of S. aureus tested except where indicated, microdilution, Ca-MHB, 35° C., 24 hr, read-out: MIC.

Regarding `Cc1[nH]c2ccccc2c1-c1nc(-c2ccccc2)c(-c2ccccc2)[nH]1` [Compound 2], the “acute toxicity (symptoms of sickness, total weight, organ weight and appearance)” value in data set [1] was “no toxic effects”. In addition, the MIC was 16 in [2]; 16 in data set [3]; 16 in data set [4]; 8 to 16 µg/mL (≈ 22.9 to 45.8 µM) in [6] (setting [12]); 16 in data set [7]. Besides, in the data set on MRSA-1B387, the “Survival (%)” value worked out at 80%. For the same compound, in data set [5], the “bactericidal or bacteriostatic effect at the corresponding MIC” value (from here on “bactericidal or bacteriostatic effect”) was “bactericidal effect”. Further, the visual bacterial growth result in data set [8] (Conc. 3.12 μg/ml) was “+”; in data set [8] (Conc. 6.25 μg/ml) it was “+”; in [8] (Conc. 12.50 μg/ml) it was “−”; in data set [8] (Conc. 25.00 μg/ml), “−”; in [8] (Conc. 50.00 μg/ml), “−”; in data set [8] (Conc. 100.00 μg/ml), “−”.
As to `O=C(O)c1ccc(-c2nc(-c3ccc(Br)cc3)c(-c3ccccc3Br)[nH]2)cc1` [Compound 3], the “Survival (%)” value in the data set on MRSA-1B387 (50 mg/kg) is listed as 15%. Also, the “bactericidal or bacteriostatic effect” value in [5] is “bacteriostatic effect”. For the same compound, the visual bacterial growth entry in data set [8] (Conc. 3.12 μg/ml) is recorded as “+”; in [8] (Conc. 6.25 μg/ml), “+”; in data set [8] (Conc. 12.50 μg/ml), “+”; in [8] (Conc. 25.00 μg/ml), “−”; in data set [8] (Conc. 50.00 μg/ml), “−”; in [8] (Conc. 100.00 μg/ml) it was “−”.
For `O=C(O)c1ccc(-c2nc(-c3ccc(Br)cc3)c(-c3ccccc3Br)[nH]2)cc1` [Compound 4], in the data set on MRSA-1B387 (50 mg/kg), the “Survival (%)” value turned out to be 50%. Further, the “bactericidal or bacteriostatic effect” value in data set [5] was “bacteriostatic effect”. For the same compound, the visual bacterial growth entry in data set [8] (Conc. 3.12 μg/ml) is on record as “+”; in data set [8] (Conc. 6.25 μg/ml), “+”; in [8] (Conc. 12.50 μg/ml), “+”; in [8] (Conc. 25.00 μg/ml), “+”; in data set [8] (Conc. 50.00 μg/ml) it was “−”; in [8] (Conc. 100.00 μg/ml), “−”.
With `Cc1[nH]c2ccccc2c1-c1nc(-c2ccc(Br)cc2)c(-c2ccc(Br)cc2)[nH]1` [Compound 13], the inhibition at 25 µg/mL in data set [9] (24 h, read-out: Inhibition (%) after 24 h) is 0%; in [9] (48 h, read-out: Inhibition (%) after 48 h), 0%. In addition, the values for the MIC in [2], in data set [4] and in [6] (setting [12]) were 32, 32 and 2 to 4 µg/mL (≈ 3.94 to 7.89 µM), respectively. The responders at 100 mg/kg in the data set with MRSA 1B-387 [10] and in the data set on MRSA 1B-387 [10] (read-out: Survival %) was 20% throughout.
As to `Cc1[nH]c2ccccc2c1-c1nc(-c2ccc(Cl)cc2)c(-c2ccc(Cl)cc2)[nH]1` [Compound 19], the melting point was 165 to 167 °C. This compound also returned an MIC in data set [2] of 8. Moreover, in [3], the MIC turned out to be 4. Besides, in data set [4], the MIC is reported as 8. Moreover, the MIC in data set [6] (setting [12]) came to 4 µg/mL (≈ 9.56 µM). In data set [7], the MIC is 8.
On to `Brc1ccc2[nH]cc(-c3nc(-c4ccc(-c5ccccc5)cc4)c(-c4ccc(-c5ccccc5)cc4)[nH]3)c2c1` [Compound 41], for which the melting point was in the range of 155 to 158 °C. In addition, the MIC in data set [6] (setting [12]) is more than 128 µg/mL.
Take `Brc1ccc2[nH]cc(-c3nc4c5ccccc5c5ccccc5c4[nH]3)c2c1` [Compound 45]: the responders at 200 mg/kg in the data set on MRSA 1B-387 [11] and in the data set with MRSA 1B-387 [11] (read-out: Survival %) was 40% in each case. In data set [6] (24 h), the MIC came to 0.5 µg/mL (≈ 1.21 µM). In addition, the responders at 100 mg/kg in the data set with MRSA 1B-387 [10] came out at 10%; in the data set with MRSA 1B-387 [10] (read-out: Survival %), 20%.
Turning to `CN[C@H](CC(C)C)C(=O)N[C@H]1C(=O)N[C@@H](CC(N)=O)C(=O)N[C@H]2C(=O)N[C@H]3C(=O)N[C@H](C(=O)N[C@H](C(=O)O)c4cc(O)cc(O)c4-c4cc3ccc4O)[C@H](O)c3ccc(c(Cl)c3)Oc3cc2cc(c3O[C@@H]2O[C@H](CO)[C@@H](O)[C@H](O)[C@H]2O[C@H]2C[C@](C)(N)[C@H](O)[C@H](C)O2)Oc2ccc(cc2Cl)[C@H]1O` [Vancomycin, reference compound], the MIC is more than 128 in data set [2], 2 in [3], 32 in data set [4] and 4 in data set [7]. Moreover, the “Survival (%)” value with MRSA-1B387 amounted to 100%.
